From paper PMC7764243, “Alterins Produced by Oyster-Associated Pseudoalteromonas Are Antibacterial Cyclolipopeptides with LPS-Binding Activity” (Marine Drugs, 2020) come the findings set out here.

In brackets after ≈: the same amount, converted by molar mass. Like-named read-outs stand apart in the source and are kept apart here. *1 amine or outer side, *2 acyl side, *3 side chain or, on linkers, in order; H or OH if unused. Where a SMILES comes first, the peptide text is derived from it. Bridges are numbered along the chain shown (N, C = ends). [ ]: non-standard residue; d: D form. The star is where a group is joined. ξ: configuration not given here. Dab(3ξ-OH) = O=C([C@@H](N[*:1])C(O)CN[*:3])[*:2]; X1 = C/C=C(/N[*:1])C(=O)[*:2]; Lauroyl = CCCCCCCCCCCC(=O)*; Nonanoyl = CCCCCCCCC(=O)*; Octanoyl = CCCCCCCC(=O)*; Dab = NCC[C@H](N)C(=O)O; X2 = CCCC/C=C\CCCC(=O)* A value given as a limit tells only on which side of the number the result lay.

One assay relates to A. hydrophila CIP 7614. The class given is cell-based, Aeromonas hydrophila. Here is the method: (§1) Antibacterial activity was assayed against a panel of micro-organisms including human and aquaculture pathogenic bacterial species. MICs were performed and defined according to internationally recognized standards (CLSI [21]). Polymyxin B (PMB), an antibiotic CLP produced by Paenibacillus polymyxa, was used as positive control. The major produced alterins, i.e., alt_952, alt_954, alt_970 and alt_980 were assayed against the whole panel of target cells while the minor ones were only tested against a few bacterial strains (Table 2).
(§2) The bacterial strains Aeromonas caviae CIP 7616, Aeromonas hydrophila CIP 7614, Escherichia coli ML35, Escherichia coli SBS 363, Salmonella enterica CIP 8297 and Yersinia ruckeri ATCC 29473 were grown in Tryptic Soy Broth. The marine bacterial strains Vibrio crassostreaeJ2–9, Vibrio tasmaniensisLGP32, Vibrio tapetis CECT 4600 were grown in Marine Broth. All of them were cultivated at optimal temperature according to ATCC and CIP specifications. The strain Vibrio parahaemolyticus13-028A/3 was grown at 28 °C in Tryptic Soy Broth supplemented in NaCl (20 g.L^−1) according to [47]. The strains Pseudoalteromonas sp. hCg-6 and hCg-42 were cultured using a synthetic medium containing: 17.11 g sucrose, 30 g sea salts (Sigma-S9883), 7.6 g K2HPO4, 3 g KH2PO4 and 20 mL MEM 50X (Dulbecco) per liter. The cultures were grown at 18 °C for 72 h with shaking (100 rpm).
(§3) MICs were determined using broth microdilution method according to [21]. To resume, antibacterial compounds ranging from 0.1 to 100 µM were assayed against the target bacteria in mid-logarithmic phase culture (1.10^6 UFC.mL^−1) in adapted culture medium according to the strain. MICs were examined by unaided eye after a 48h-incubation time at the optimal temperature growth. The lipopeptide PMB (Sigma-P4932) was used as antibiotic control.

A further assay relates to E. coli ML35. The class given is cell-based, Escherichia coli. On the procedure:
as §1, §2, §3

In a further assay the test system is E. coli SBS363. The class given is cell-based, Escherichia coli. The note with it: E. coli SBS363 (short-chain LPS); broth microdilution, 0.1 to 100 µM, 1.10^6 UFC/mL, 48 h, read by unaided eye. Here is the method: as §1, §2, §3
On the technique in general: In broth dilution the organism is exposed to a series of concentrations in liquid medium.

The subject of another assay is P. aeruginosa ATCC 27853. The class given is cell-based, Pseudomonas aeruginosa. Here is the method:
as §1, §3

Another assay deals with Pseudoalteromonas hCg-6. The class given is cell-based, Pseudoalteromonas sp. The note with it: 48 h. On the procedure: as §1, §2, §3
Another assay has as its system S. enterica CIP 8297. The class given is cell-based, Salmonella enterica. The note with it: broth microdilution, 0.1 to 100 µM, 1.10^6 UFC/mL, 48 h, read by unaided eye. Here is the method: as §1, §2, §3
The subject of a further assay is V. harveyi ORM4. The class given is cell-based, Vibrio harveyi. On the procedure:
as §1, §3

Another assay relates to V. tasmaniensis LGP 32. The class given is cell-based, Vibrio tasmaniensis. The note with it: 48 h. On the procedure: as §1, §2, §3
A further assay relates to Y. ruckeri ATCC 29473. The class given is cell-based, Yersinia ruckeri. Here is the method:
as §1, §2, §3

In a further assay the test system is Pseudoalteromonas hCg-42. The class given is cell-based, Pseudoalteromonas sp. The note with it: 48 h. On the procedure: as §1, §2, §3
The subject of the next assay is V. tapetis CECT 4600T. The class given is cell-based, Vibrio tapetis. Here is the method: as §1, §2, §3
The test system of another assay is V. tasmaniensis LGP32. Put plainly: Viability (cultivability, CFU count) in seawater. The class given is cell-based, Vibrio tasmaniensis. On the procedure:
As a first step, we have measured the antimicrobial activity of alt_952, alt_954, alt_970 and alt_980 against V. tasmaniensis LGP32 in seawater after a 4 hour-long incubation. […] The effects on membrane were also investigated under the same experimental conditions using live/dead bacterial viability kit for flow cytometry (Figure 6). A net cultivability loss of V. tasmaniensis (2-log reduction) was observed when incubated with alt_954 and alt_980 indicative of a bactericidal effect (Figure 7A). In these conditions, V. tasmaniensis was much less affected by alt_970 (1-log reduction) and not by alt_952 (Figure 7A).
[…] After a 4 h-long incubation, viable bacteria were counted. Diluted samples (50 µL) in sterile seawater were spread in duplicate on appropriate medium. Cultivable bacterial concentration (CFU mL^−1) was determined after overnight incubation at optimal growth temperature.

Assay [1] concerns Vibrio tasmaniensis LGP32. Put plainly: Membrane potential, DiBAC4(3) flow cytometry. The class given is cell-based. On the procedure: To assess alterin physiological impact on Gram-negative cells, flow cytometry analyses were implemented using Live/Dead cell viability assay and the membrane potential dye, DiBAC4(3) on V. tasmaniensis LGP32 treated as previously (i.e., […]).
The membrane potential of the target bacteria was analysed using the potential-sensitive probe Bis-1,3-Dibutylbarbituric AcideTrimethineOxonol, (DiBAC4(3), MolecularProbes). DiBAC4(3) was reconstituted in DMSO stock solution at 1mM and stocked at −20 °C until use. Samples (500 µL) were incubated with 1 µL of DiBAC4(3) stock solution for 10mn in the dark. Under the effect of depolarization cells accumulate DiBAC4(3), fluoresce bright green and can easily be detected by flow cytometry. After excitation at 488 nm cells with depolarized membrane become fluorescent and reemit at 516 nm recovery of the signal at FL1. Positive control of the initial sample is carried out with 20% alcohol.
A general note: A flow cytometer gives signals particle by particle.

The test system of a further assay is A. caviae CIP 7616. The class given is cell-based, Aeromonas caviae. The note with it: broth microdilution, 0.1 to 100 µM, 1.10^6 UFC/mL, 48 h, read by unaided eye. On the procedure:
as §1, §2, §3

For assay [2], the system named is V. parahaemolyticus 13-028A/3. The class given is cell-based, Vibrio parahaemolyticus. The note with it: broth microdilution, 0.1 to 100 µM, 1.10^6 UFC/mL, 48 h, read by unaided eye. On the procedure: as §1, §2, §3

In general, MIC refers to the least concentration at which growth counts as inhibited. High values mean a less susceptible organism, low ones a more susceptible organism. For the compound `C/C=C1/NC(=O)[C@@H](NC(=O)CCCCCCC)C(O)CNC(=O)[C@H](C(O)CN)NC(=O)[C@H](C(O)CN)NC(=O)[C@H](CCCNC(=N)N)NC(=O)[C@H](CC(C)C)NC(=O)[C@H](CCN)NC1=O` (stereo partly shown) [alt_926] (Octanoyl-[Dab(3ξ-OH)][X1][Dab]LR[Dab(3ξ-OH)][Dab(3ξ-OH)]; lactam 1-C), the MIC in the assay on A. hydrophila CIP 7614 (CIP 7614, 48 h) is above 100 µM; with E. coli ML35 (ML35, 48 h), 100 µM (≈ 92.7 µg/mL); against E. coli SBS363 it was 50 µM (≈ 46.4 µg/mL); with P. aeruginosa ATCC 27853 (ATCC 27853, 48 h), above 100 µM; with Pseudoalteromonas hCg-6, above 100 µM; against S. enterica CIP 8297, 12.5 µM (≈ 11.6 µg/mL). Besides, the minimal inhibitory concentration (MIC) against V. harveyi ORM4 (ORM4, 48 h) was determined as 50 µM (≈ 46.4 µg/mL); with V. tasmaniensis LGP 32, 50 µM (≈ 46.4 µg/mL); against Y. ruckeri ATCC 29473 (ATCC 29473, 48 h), 50 µM (≈ 46.4 µg/mL).

In the case of `C/C=C1/NC(=O)[C@@H](NC(=O)CCC/C=C\CCCC)C(O)CNC(=O)[C@H](C(O)CN)NC(=O)[C@H](C(O)CN)NC(=O)[C@H](CCCNC(=N)N)NC(=O)[C@H](CC(C)C)NC(=O)[C@H](CCN)NC1=O` (stereo partly shown) [alt_952] (X2-[Dab(3ξ-OH)][X1][Dab]LR[Dab(3ξ-OH)][Dab(3ξ-OH)]; lactam 1-C), the MIC in the assay on E. coli ML35 (ML35, 48 h) is recorded as 25 µM (≈ 23.8 µg/mL); against E. coli SBS363, 0.8 µM (≈ 0.763 µg/mL); with P. aeruginosa ATCC 27853 (ATCC 27853, 48 h) it was 50 µM (≈ 47.7 µg/mL); against Pseudoalteromonas hCg-42, above 100 µM; against Pseudoalteromonas hCg-6 it was above 100 µM; in the assay with S. enterica CIP 8297, 6.25 µM (≈ 5.96 µg/mL). The MIC is listed as 12.5 µM (≈ 11.9 µg/mL) in the assay with V. harveyi ORM4 (ORM4, 48 h); above 100 µM with V. tapetis CECT 4600T (CECT 4600, 48 h); 50 µM (≈ 47.7 µg/mL) in the assay on V. tasmaniensis LGP 32; 0.4 µM (≈ 0.381 µg/mL) in the assay on Y. ruckeri ATCC 29473 (ATCC 29473, 48 h). For the same compound, in the assay on V. tasmaniensis LGP32 (20 µM, 4 h incubation in sterile seawater, inoculum 1.10^6 UFC/mL, plated in duplicate), the “cultivability loss of V. tasmaniensis (log reduction of CFU)” value was “no antibacterial effect”. In addition, the “cultivability loss of V. tasmaniensis” value with V. tasmaniensis LGP32 (300 µM, 4 h in seawater (data not shown)) is “identical to those observed using alt_954 and alt_980 at 20 µM”. Further, the “cells with depolarized membrane” value in assay [1] (20 µM, 4 h in sterile seawater) is “around 55%”. Also, the cells depolarization in [1] (300 µM, 4 h in seawater) is listed as 100%.

Turning to Polymyxin B [PMB, reference compound], the MIC against A. caviae CIP 7616 is 3.1 µM; in the assay on A. hydrophila CIP 7614 (A. hydrophila CIP 7614, broth microdilution, 0.1 to 100 µM, 1.10^6 UFC/mL, 48 h, read by unaided eye), 0.8 µM; in the assay on E. coli ML35 (E. coli ML35 (long-chain LPS), broth microdilution, 0.1 to 100 µM, 1.10^6 UFC/mL, 48 h, read by unaided eye), 3.1 µM; against E. coli SBS363, 0.2 µM; with P. aeruginosa ATCC 27853 (P. aeruginosa ATCC 27853, broth microdilution, 0.1 to 100 µM, 1.10^6 UFC/mL, 48 h, read by unaided eye) it was 1.6 µM; with Pseudoalteromonas hCg-42 (Pseudoalteromonas hCg-42 (producing strain), broth microdilution, 0.1 to 100 µM, 1.10^6 UFC/mL, read by unaided eye), above 100 µM. The MIC in the assay with Pseudoalteromonas hCg-6 (Pseudoalteromonas hCg-6 (producing strain), broth microdilution, 0.1 to 100 µM, 1.10^6 UFC/mL, read by unaided eye) is on record as above 100 µM; with S. enterica CIP 8297, 0.8 µM; in the assay on V. harveyi ORM4 (V. harveyi ORM4, broth microdilution, 0.1 to 100 µM, 1.10^6 UFC/mL, 48 h, read by unaided eye) it was 25 µM; in assay [2] it was above 100 µM; against V. tapetis CECT 4600T (V. tapetis CECT 4600T, broth microdilution, 0.1 to 100 µM, 1.10^6 UFC/mL, 48 h, read by unaided eye), above 100 µM; against V. tasmaniensis LGP 32 (V. tasmaniensis LGP 32, broth microdilution, 0.1 to 100 µM, 1.10^6 UFC/mL, read by unaided eye) it was 3 µM. In the assay with Y. ruckeri ATCC 29473 (Y. ruckeri ATCC 29473, broth microdilution, 0.1 to 100 µM, 1.10^6 UFC/mL, 48 h, read by unaided eye), this compound registered a minimal inhibitory concentration (MIC) of 0.4 µM.

Regarding `C/C=C1/NC(=O)[C@@H](NC(=O)CCCCCCCC)C(O)CNC(=O)[C@H](C(O)CN)NC(=O)[C@H](C(O)CN)NC(=O)[C@H](CCCNC(=N)N)NC(=O)[C@H](CC(C)C)NC(=O)[C@H](CCN)NC1=O` (stereo partly shown) [alt_940] (Nonanoyl-[Dab(3ξ-OH)][X1][Dab]LR[Dab(3ξ-OH)][Dab(3ξ-OH)]; lactam 1-C), the minimal inhibitory concentration (MIC) in the assay with A. hydrophila CIP 7614 (CIP 7614, 48 h) is listed as 25 µM (≈ 23.5 µg/mL); in the assay on E. coli ML35 (ML35, 48 h) it was 50 µM (≈ 47.1 µg/mL); with E. coli SBS363, 25 µM (≈ 23.5 µg/mL); against P. aeruginosa ATCC 27853 (ATCC 27853, 48 h), 50 µM (≈ 47.1 µg/mL); against Pseudoalteromonas hCg-6, above 100 µM; in the assay on V. harveyi ORM4 (ORM4, 48 h), 6.25 µM (≈ 5.88 µg/mL). Further, the MIC against V. tasmaniensis LGP 32 turned out to be 6.25 µM (≈ 5.88 µg/mL); with Y. ruckeri ATCC 29473 (ATCC 29473, 48 h), 6.25 µM (≈ 5.88 µg/mL).

In the case of `C/C=C1/NC(=O)[C@@H](NC(=O)CCCCCCCCCCC)C(O)CNC(=O)[C@H](C(O)CN)NC(=O)[C@H](C(O)CN)NC(=O)[C@H](CCCNC(=N)N)NC(=O)[C@H](CC(C)C)NC(=O)[C@H](CCN)NC1=O` (stereo partly shown) [alt_982] (Lauroyl-[Dab(3ξ-OH)][X1][Dab]LR[Dab(3ξ-OH)][Dab(3ξ-OH)]; lactam 1-C), the MIC against E. coli SBS363 came out at 6.3 µM (≈ 6.19 µg/mL); against Y. ruckeri ATCC 29473 (ATCC 29473, 48 h) it was 12.5 µM (≈ 12.3 µg/mL).
